Data set [1] relates to HeLa S3 cells. Description: Protective effect of peptides on apoptosis and necrosis in the presence of camptothecin (Annexin-V FITC / PI flow cytofluorimetry). Type of data set: cell-based, human. Particulars: HeLa cell culture, 24 hours. The source says:
(§1) The experiments to study the effect of peptides on apoptosis and necrosis involved the use of reagents in the ApoTarget Annexin-V FITC Apoptosis Kit (Invitrogen, CIIIA). In addition to Annexin-V, marked by the FITC fluorescent stain, the ApoTarget Annexin-V FITC Apoptosis Kit contains propidium iodide (PI), a dye. PI can permeate only those cells whose cytoplasmic membrane is damaged, which is a characteristic sign of an advanced stage of apoptosis or necrosis. Having permeated cells with damaged cell membrane, PI binds itself to the DNA. The «red» fluorescence of resulting complexes is identified with a flow cytofluorimeter.
(§2) Therefore, the procedure of double staining (Annexin-V FITC plus PI) and the process of flow cytofluorimetry can be used to distinguish 3 cell populations and determine their percentage relationship: 1) non-apoptotic cells (Annexin-V-negative and PI-negative), 2) cells at an early stage of apoptosis (Annexin-V-positive and PI-negative), 3) necrotic cells or cells at an advanced stage of apoptosis (Annexin-V- positive and PI- positive). An increase in the percentage of apoptotic and necrotic cells can serve as a measure of how the compounds added to the culture medium act on these processes. Camptothecin (Camptothecin, Sigma, CIIIA), which is recommended by the manufacturer, was used as control in the experiments because of its pronounced ability to induce apoptosis and necrosis of cells, especially tumor ones.
(§3) Peptide solutions in sterile PBS with concentrations of 1 mg/ml were prepared immediately before the experiments to study the peptides' effect on apoptosis and necrosis. The same solutions that were stored in sterile test tubes at +4°C were used to study the proliferation activity. Working dilutions of peptides in the cell cultivation medium were prepared on the day of each experiment. A sterile plastic 96-well plate (Corning, USA) was used for this purpose. The dilutions were prepared so that the introduction of 25 µl of each working dilution in an experimental well with cultivated cells would result in final concentrations of peptides equal to 400, 200, 100 and 50 ng/ml.
(§4) The HeLa S3 and NIH 3T3 cells were cultivated with the use of reagents manufactured by Invitrogen (USA) and plastic vials, plates, pipettes and filters of Corning (USA). The cells were cultivated in DMEM, prepared with a dry concentrate dissolved in pyrogen-free distilled water (Millipore, USA). The medium contained 10 % FBS, 2 mM of glutamine and penicillin-streptomycin (diluted according to the vendor's recommendations). HeLa S3 and NIH 3T3 were grown in vials T150 at +37 °C in the atmosphere of 5.6 % CO2. The cells were constantly maintained in the logarithmic growth phase, to this end they were passed at least 2 times a week, with trypsin used to remove cells from the walls of the culture vials. Live cells were counted in a hemacytometer after staining the suspension aliquot with trypan blue.
(§5) The HeLa S3 and NIH 3T3 cells were removed from the surface of the culture vials and counted; the concentration was moved to 10^5 cell/ml, and the resulting suspensions were put in doses of 1 ml in the wells of a 24-well plate.
(§6) Having made sure on the following day that the cells adhered to the plate's surface, the culture medium was replaced with a fresh one in each well.
(§7) Camptothecin was added in the control wells (positive control - stimulation of apoptosis and necrosis) to the final concentration of 50 µM that had been determined in preliminary experiments with the NIH 3T3 and HeLa S3 cells. 25 µl of fresh culture medium were added in the control wells (negative control), 25 µl of working peptide dilutions were added in each experimental well (each working dilution - twice), as well as camptothecin in the same final concentration. Incubation was conducted at +37 °C. […]

Data set [2] concerns NIH 3T3 cells. The description is as above. In kind it is cell-based, mice. The following applies: NIH3T3 cell culture, 24 hours.
Source text: as §1, §2, §3, §4, §5, §6, §7

Data set [3] in a line: Stability of peptides in storage in solution (HPLC analysis). The following applies: 0.05 M ammonium acetate buffer, approx. 1 mg/ml.
Method: The peptides were dissolved in 0.05 M of an ammonium acetate buffer with pH 4.5 and pH 7.5 so that their concentrations achieved approximately 1 mg/ml. The solutions were sterilely filtered and kept in sterile, well-sealed vials. Upon expiration of the storage period the substances were analyzed with HPLC.
Setting [4] is: peptide 50 ng/ml + camptothecin 50 µM.
[5] abbreviates: peptide 100 ng/ml + camptothecin 50 µM.
[6] abbreviates: peptide 200 ng/ml + camptothecin 50 µM.
[7] abbreviates: peptide 400 ng/ml + camptothecin 50 µM.

Residues, ends and D or L forms follow the SMILES beside them.

As to `COC(=O)[C@H](CCC(=O)O)NC(=O)[C@@H](N)CC(=O)O` [DEOMe, H-Asp-Glu-OCH3] (HELM PEPTIDE1{D.E.[CO[*:1]]}$$$$V2.0), the Apoptosis is recorded as 4% in data set [1] (setting [4]); 2.1% in data set [1] (setting [5]); 2.3% in data set [1] (setting [6]); 2.5% in data set [1] (setting [7]); 4% in data set [2] (setting [4]); 2.5% in data set [2] (setting [5]). Besides, the values for the Apoptosis in data set [2] (setting [6]) and in data set [2] (setting [7]) were 3% and 3.3%, respectively. Further, the Necrosis came to 5% in data set [1] (setting [4]); 4.5% in data set [1] (setting [5]); 4.5% in data set [1] (setting [6]); 5.5% in data set [1] (setting [7]); 6% in data set [2] (setting [4]); 4% in data set [2] (setting [5]). Besides, the Necrosis turned out to be 5% in data set [2] (setting [6]) and 6% in data set [2] (setting [7]). Moreover, the “Peptide stability in storage” value in data set [3] (1hour, pH 4.5, 22°C) is reported as 98.0; in data set [3] (1hour, pH 7.5, 22°C), 98.0; in data set [3] (10 days, pH 4.5, 22°C), 98.1; in data set [3] (10 days, pH 7.5, 22°C), 98.0; in data set [3] (30 days, pH 4.5, 22°C), 97.7; in data set [3] (30 days, pH 7.5, 22°C), 97.65. For the same compound, the “Peptide stability in storage” value in data set [3] (60 days, pH 4.5, 22°C) was determined as 97.55; in data set [3] (60 days, pH 7.5, 22°C), 97.5; in data set [3] (90 days, pH 4.5, 22°C), 97.5; in data set [3] (90 days, pH 7.5, 22°C), 97.2.
For the compound `CC(=O)N[C@@H](CC(=O)O)C(=O)N[C@@H](CCC(=O)O)C(=O)O` [AcDE, Ac-Asp-Glu-OH] (Ac-Asp-Glu-OH), the Apoptosis came to 21% in data set [1] (setting [4]); 17% in data set [1] (setting [5]); 15% in data set [1] (setting [6]); 22% in data set [1] (setting [7]); 35% in data set [2] (setting [4]); 30% in data set [2] (setting [5]). Also, the Apoptosis in data set [2] (setting [6]) stood at 22%; in data set [2] (setting [7]), 19%. Moreover, the Necrosis was found to be 13% in data set [1] (setting [4]); 11% in data set [1] (setting [5]); 8% in data set [1] (setting [6]); 7% in data set [1] (setting [7]); 50% in data set [2] (setting [4]); 46% in data set [2] (setting [5]). Besides, the Necrosis came out at 34% in data set [2] (setting [6]) and 28% in data set [2] (setting [7]).
Regarding `CCNC(=O)[C@H](CCC(=O)O)NC(=O)[C@@H](N)CC(=O)O` [DENHEt, H-Asp-Glu-NH-CH2-CH3] (HELM PEPTIDE1{D.E.[CCN[*:1]]}$$$$V2.0), the Apoptosis in data set [1] (setting [4]) is 15%; in data set [1] (setting [5]), 9%; in data set [1] (setting [6]) it was 8%; in data set [1] (setting [7]) it was 8%; in data set [2] (setting [4]) it was 25%; in data set [2] (setting [5]), 23%. Also, the results for the Apoptosis in data set [2] (setting [6]) and in data set [2] (setting [7]) were 21% and 18%, respectively. Also, the Necrosis in data set [1] (setting [4]) was 20%; in data set [1] (setting [5]) it was 18%; in data set [1] (setting [6]) it was 13%; in data set [1] (setting [7]) it was 16%; in data set [2] (setting [4]) it was 13%; in data set [2] (setting [5]), 12%. In addition, the Necrosis was 11% in data set [2] (setting [6]) and 7% in data set [2] (setting [7]). Moreover, the “Peptide stability in storage” value is recorded as 98.1 in data set [3] (1hour, pH 4.5, 22°C); 98.2 in data set [3] (1hour, pH 7.5, 22°C); 98.3 in data set [3] (10 days, pH 4.5, 22°C); 98.2 in data set [3] (10 days, pH 7.5, 22°C); 98.15 in data set [3] (30 days, pH 4.5, 22°C); 98.10 in data set [3] (30 days, pH 7.5, 22°C). For the same compound, the “Peptide stability in storage” value in data set [3] (60 days, pH 4.5, 22°C) came to 98.0; in data set [3] (60 days, pH 7.5, 22°C), 98.0; in data set [3] (90 days, pH 4.5, 22°C) it was 97.9; in data set [3] (90 days, pH 7.5, 22°C) it was 97.85.
For `C[C@H](N)C(=O)N[C@@H](CC(=O)O)C(=O)N[C@@H](CCC(=O)O)C(=O)N[C@@H](CCCNC(=N)N)C(=O)O` [ADER, H-Ala-Asp-Glu-Arg-OH] (H-ADER-OH), the Apoptosis came out at 2% in data set [1] (setting [4]); 2.1% in data set [1] (setting [5]); 1.5% in data set [1] (setting [6]); 2.3% in data set [1] (setting [7]); 3% in data set [2] (setting [4]); 2.2% in data set [2] (setting [5]). Besides, the Apoptosis in data set [2] (setting [6]) is 2.5%; in data set [2] (setting [7]), 4.1%. Further, the Necrosis in data set [1] (setting [4]) was found to be 5.2%; in data set [1] (setting [5]) it was 4.1%; in data set [1] (setting [6]) it was 4%; in data set [1] (setting [7]), 4%; in data set [2] (setting [4]), 4%; in data set [2] (setting [5]) it was 3.1%. For the same compound, the Necrosis in data set [2] (setting [6]) worked out at 3.5%; in data set [2] (setting [7]), 5%. Besides, the “Peptide stability in storage” value in data set [3] (1hour, pH 4.5, 22°C) was 98.1; in data set [3] (1hour, pH 7.5, 22°C), 98.1; in data set [3] (10 days, pH 4.5, 22°C) it was 98.0; in data set [3] (10 days, pH 7.5, 22°C) it was 98.0; in data set [3] (30 days, pH 4.5, 22°C), 97.9; in data set [3] (30 days, pH 7.5, 22°C), 97.7. Besides, the “Peptide stability in storage” value is 98.0 in data set [3] (60 days, pH 4.5, 22°C); 97.7 in data set [3] (60 days, pH 7.5, 22°C); 97.8 in data set [3] (90 days, pH 4.5, 22°C); 97.6 in data set [3] (90 days, pH 7.5, 22°C).
As for H-Val-Asp-Glu-OH [VDE], the Apoptosis in data set [1] (setting [4]) is reported as 2.2%; in data set [1] (setting [5]), 3.1%; in data set [1] (setting [6]), 3.5%; in data set [1] (setting [7]), 2%; in data set [2] (setting [4]), 3.5%; in data set [2] (setting [5]), 1.8%. Also, the results for the Apoptosis in data set [2] (setting [6]) and in data set [2] (setting [7]) were 2.2% and 3%, respectively. Also, the Necrosis is 3.1% in data set [1] (setting [4]); 3.6% in data set [1] (setting [5]); 4% in data set [1] (setting [6]); 2.4% in data set [1] (setting [7]); 5% in data set [2] (setting [4]); 2% in data set [2] (setting [5]). In addition, the figures for the Necrosis in data set [2] (setting [6]) and in data set [2] (setting [7]) were 3% and 4%, respectively. Besides, the “Peptide stability in storage” value in data set [3] (1hour, pH 4.5, 22°C) is 98.1; in data set [3] (1hour, pH 7.5, 22°C), 98.1; in data set [3] (10 days, pH 4.5, 22°C), 98.0; in data set [3] (10 days, pH 7.5, 22°C), 97.7; in data set [3] (30 days, pH 4.5, 22°C), 97.6; in data set [3] (30 days, pH 7.5, 22°C), 97.6. For the same compound, the “Peptide stability in storage” value in data set [3] (60 days, pH 4.5, 22°C) came out at 97.55; in data set [3] (60 days, pH 7.5, 22°C), 97.55; in data set [3] (90 days, pH 4.5, 22°C), 97.55; in data set [3] (90 days, pH 7.5, 22°C), 97.2.

The values are drawn from EP2963052A2, “PEPTIDES WITH CYTOPROTECTIVE ACTIVITY” (Zamerton Holdings Limited, priority 2013, dated 2016).
